From EP4656642A1, “ESTROGEN RECEPTOR PROTEOLYSIS TARGETING CHIMERA COMPOUND AND USE THEREOF” (GAN & LEE PHARM CO., LTD, priority 2023, dated 2024)

Legend:
Type in all cases: cell-based
ERα [1] = target: T1, ERα (Homo sapiens, UniProt P03372); test: Degradation of ERα in MCF-7 cells (immunoblotting, 4 h)
T1 sequence (P03372 1-595): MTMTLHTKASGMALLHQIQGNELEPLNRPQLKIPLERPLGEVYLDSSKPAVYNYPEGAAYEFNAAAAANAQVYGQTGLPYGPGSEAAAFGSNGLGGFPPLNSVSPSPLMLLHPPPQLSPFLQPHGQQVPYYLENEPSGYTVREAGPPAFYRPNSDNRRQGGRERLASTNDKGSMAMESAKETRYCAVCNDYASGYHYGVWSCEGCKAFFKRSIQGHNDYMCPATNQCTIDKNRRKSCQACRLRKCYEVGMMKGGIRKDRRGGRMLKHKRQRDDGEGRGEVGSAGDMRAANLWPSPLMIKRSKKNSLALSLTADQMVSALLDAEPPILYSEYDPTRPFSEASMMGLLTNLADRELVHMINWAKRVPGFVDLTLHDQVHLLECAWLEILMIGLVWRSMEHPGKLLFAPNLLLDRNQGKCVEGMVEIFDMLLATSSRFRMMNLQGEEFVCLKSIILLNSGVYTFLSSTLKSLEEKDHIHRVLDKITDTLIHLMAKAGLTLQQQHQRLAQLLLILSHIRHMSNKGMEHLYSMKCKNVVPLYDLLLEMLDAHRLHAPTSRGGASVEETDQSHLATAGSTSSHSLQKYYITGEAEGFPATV
Procedure, shortened: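 Degradation rate reflects ERα band intensity, corrected to an internal reference protein, relative to control. Values come from Western blotting of lysates from MCF-7 cells exposed 4 h at 37°C to compounds at final concentrations of 0.15-1000nM.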

ERα [2] = target: T1, ERα; test: Degradation of ERα in T-47D cells (immunoblotting, 4 h); set-up: host or cells: T-47D
Procedure, shortened: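 ERα protein levels were assessed by immunoblot of RIPA lysates (with protease inhibitor) after 4 h exposure at 37°C. Compound was added in DMSO to T-47D cells at final concentrations of 0.15-1000 nM.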

MCF-7 cells = test: Inhibition of cell proliferation of MCF-7 cells (CCK-8, 9 days); conditions: treated for 9 days, CCK-8 kit (Table 6)
Procedure, shortened: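 Read-out was CCK-8 viability after 9-day continuous exposure (37°C, 5% CO2) of MCF-7 cells plated at 800/well in 10% FBS DMEM across several compound concentrations. Values are proliferation IC50s.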

| Degradation rate (%) of ERα in MCF-7 cells (ERα [1]; 1nM compound) | Degradation rate (%) of ERα in MCF-7 cells (ERα [1]; 10nM compound) | Degradation rate (%) of ERα in T-47D cells (ERα [2]; 1nM compound) | Degradation rate (%) of ERα in T-47D cells (ERα [2]; 10nM compound) | IC50 (MCF-7 cells) | SMILES |
| --- | --- | --- | --- | --- | --- |
| 23% | 23% | 14% | 50% | 125 nM | O=C1CCC(N2Cc3c(ccc4c3OC3(CC4)CCN(C(=O)CN4CCC5(CC4)CCN(c4ccc([C@@H]6c7ccc(O)cc7CC[C@@H]6c6ccccc6)cc4)CC5)CC3)C2=O)C(=O)N1 (some centres unmarked) [A65] |
| 34% | 49% | 42% | 63% | 8.23 nM | O=C1CCC(N2Cc3c(ccc4c3OCC43CCN(c4ccc(C(=O)N5CCN(c6ccc([C@@H]7c8ccc(O)cc8CC[C@@H]7c7ccccc7)cc6)CC5)nc4)CC3)C2=O)C(=O)N1 (some centres unmarked) [J3] |
| 22% | 55% | 52% | 82% | 10.8 nM | C[C@@H]1Cc2c([nH]c3ccccc23)[C@@H](c2c(F)cc(N3CCC(C(=O)N4CCC(N5CCC6(CC5)COc5c6ccc6c5CN(C5CCC(=O)NC5=O)C6=O)[C@H](F)C4)CC3)cc2F)N1CC(F)F (some centres unmarked) [D9] |
| 9% | 48% | 9% | 44% | 970 nM | O=C1CCC(N2C(=O)c3ccc4c(c3C2=O)OCC42CCN(C3CCC4(CC3)CCN(c3ccc([C@@H]5c6ccc(O)cc6CC[C@@H]5c5ccccc5)cc3)CC4)CC2)C(=O)N1 (some centres unmarked) [L4] |
| 63% | 63% | 61% | 68% | 203 nM | C[C@@H]1Cc2cc(O)ccc2C(c2c(F)cc(N3CCC4(CCN(CC(=O)N5CCC6(CC5)COc5c6ccc6c5CN(C5CCC(=O)NC5=O)C6=O)C4)CC3)cc2F)N1CC(F)F (some centres unmarked) [F8] |
| 78% | 85% | 79% | 81% | 4.89 nM | O=C1CCC(N2Cc3c(ccc4c3OCC43CCN(C(=O)C4CCN(CC5CCN(c6ccc([C@@H]7c8ccc(O)cc8CC[C@@H]7c7ccccc7)cc6)CC5)CC4)CC3)C2=O)C(=O)N1 (some centres unmarked) [J8] |
| 16% | 42% | 18% | 35% | 196 nM | O=C1CCC(N2Cc3c(ccc4c3OCC43CCN(C4CC5(CCC6(CCN(C7CCN(c8ccc([C@@H]9c%10ccc(O)cc%10CC[C@@H]9c9ccccc9)cc8)CC7)CC6)CC5)C4)CC3)C2=O)C(=O)N1 (some centres unmarked) [K15] |
| 57% | 62% | 58% | 70% | 17.5 nM | O=C1CCC(N2Cc3c(ccc4c3OCC43CCN(C(=O)C4CN(CC5CCN(c6ccc([C@@H]7c8ccc(O)cc8CC[C@@H]7c7ccccc7)cc6)CC5)C4)CC3)C2=O)C(=O)N1 (some centres unmarked) [K33] |
| 1% | 56% | 36% | 66% | 936 nM | CN(C(=O)CN1CCC2(CC1)COc1c2ccc2c1C(=O)N(C1CCC(=O)NC1=O)C2=O)C1CCC2(CC1)CN(c1ccc([C@@H]3c4ccc(O)cc4CC[C@@H]3c3ccccc3)cc1)C2 (some centres unmarked) [K44] |
| 53% | 43% | 59% | 65% | 3.81 nM | C[C@@H]1Cc2cc(O)ccc2C(c2c(F)cc(N3CCC(C(=O)N4CCC(N5CCC6(CC5)COc5c6ccc6c5CN(C5CCC(=O)NC5=O)C6=O)[C@H](F)C4)CC3)cc2F)N1CC(F)F (some centres unmarked) [F10] |
| 42% | 68% | 54% | 82% | 186 nM | CN(C[C@H]1CC[C@H](C(=O)N2CCC3(CC2)COc2c3ccc3c2CN(C2CCC(=O)NC2=O)C3=O)CC1)[C@H]1CCN(c2ccc([C@@H]3c4ccc(O)cc4CC[C@@H]3c3ccccc3)cc2)C[C@H]1F (some centres unmarked) [D13] |
| 38% | 56% | 55% | 80% | 890 nM | C[C@H]1C[C@@H](N2CCC3(CC2)COc2c3ccc3c2CN(C2CCC(=O)NC2=O)C3=O)CCN1C(=O)C1CCN(c2ccc([C@@H]3c4ccc(O)cc4CC[C@@H]3c3ccccc3)cc2)CC1 (some centres unmarked) [G11] |
| 19% | 72% | 52% | 84% | 83.3 nM | O=C1CCC(N2Cc3c(ccc4c3OCC43CCN(C4CCC(OC5CCN(c6ccc([C@@H]7c8ccc(O)cc8CC[C@@H]7c7ccccc7)cc6)CC5)CC4)CC3)C2=O)C(=O)N1 (some centres unmarked) [K50] |
| 40% | 34% | 61% | 46% | 7360 nM | O=C1CCC(N2Cc3c(ccc4c3OCC43CCN(CC(=O)N4CCC(Oc5ccc([C@@H]6c7ccc(O)cc7CC[C@@H]6c6ccccc6)cc5)CC4)CC3)C2=O)C(=O)N1 (some centres unmarked) [H59] |
| 9% | 62% | 33% | 75% | 11400 nM | O=C1CCC(N2Cc3c(ccc4c3OCC43CCN(C(=O)[C@H]4CC[C@H](OC5CCN(c6ccc([C@@H]7c8ccc(O)cc8CC[C@@H]7c7ccccc7)cc6)CC5)CC4)CC3)C2=O)C(=O)N1 (some centres unmarked) [D8] |
| 18% | 20% | 52% | 52% | 56400 nM | O=C1CCC(N2Cc3c(ccc4c3OCC43CCN(C(=O)CC4CCN(c5ccc([C@@H]6c7ccc(O)cc7CC[C@@H]6c6ccccc6)cc5)CC4)CC3)C2=O)C(=O)N1 (some centres unmarked) [A124] |
| 31% | 29% | 61% | 68% | 3620 nM | O=C1CCC(N2Cc3c(ccc4c3OCC43CCN(C4CC5CC4CN5C(=O)C4CCN(c5ccc([C@@H]6c7ccc(O)cc7CC[C@@H]6c6ccccc6)cc5)CC4)CC3)C2=O)C(=O)N1 (some centres unmarked) [D2] |
| 63% | 74% | 56% | 77% | 5.26 nM | O=C1CCC(N2Cc3c(ccc4c3OCC43CCN(C4CCN(C(=O)C5CCC6(CC5)CN(c5ccc([C@@H]7c8ccc(O)cc8CC[C@@H]7c7ccccc7)cc5)C6)CC4)CC3)C2=O)C(=O)N1 (some centres unmarked) [A84] |
| 25% | 35% | 22% | 53% | 4.13 nM | O=C1CCC(N2Cc3c(ccc4c3OCC43CCN(C4CCN(CC5CCN(c6ccc([C@@H]7c8ccc(O)cc8CC[C@@H]7c7ccccc7)cc6)CC5)CC4)CC3)C2=O)C(=O)N1 (some centres unmarked) [G1] |
| 29% | 61% | 54% | 78% | 52100 nM | O=C1CCC(N2Cc3cc4c(cc3C2=O)OC2(CC4)CN(C(=O)CN3CCC4(CCN(c5ccc([C@@H]6c7ccc(O)cc7CC[C@@H]6c6ccccc6)cc5)CC4)C3)C2)C(=O)N1 (some centres unmarked) [A77] |
| 26% | 72% | 55% | 73% | 4170 nM | O=C1CCC(N2Cc3c(ccc4c3OCC43CCN(CCNC(=O)C4CCC5(CC4)CCN(c4ccc([C@@H]6c7ccc(O)cc7CC[C@@H]6c6ccccc6)cc4)CC5)CC3)C2=O)C(=O)N1 (some centres unmarked) [B19] |
| 18% | 71% | 40% | 75% | 41.9 nM | O=C1CCC(N2Cc3cc4c(cc3C2=O)OC2(CC4)CN(C(=O)CN3CCC4(CC3)CCN(c3ccc([C@@H]5c6ccc(O)cc6CC[C@@H]5c5ccccc5)cc3)CC4)C2)C(=O)N1 (some centres unmarked) [A70] |
